Biological target: recombinant human ROCK-I (Homo sapiens, UniProt Q13464)
Experiment: biochemical
Settings: IMAP fluorescence polarisation, dose response curve, read-out: plC50 (the source's name)
Method: Following a one hour incubation at room temperature in the dark, enzyme activity is detected by adding 60 μl of IMAP binding reagent (Molecular Devices) to each well.

Chain of recombinant human ROCK-I (Q13464 whole entry): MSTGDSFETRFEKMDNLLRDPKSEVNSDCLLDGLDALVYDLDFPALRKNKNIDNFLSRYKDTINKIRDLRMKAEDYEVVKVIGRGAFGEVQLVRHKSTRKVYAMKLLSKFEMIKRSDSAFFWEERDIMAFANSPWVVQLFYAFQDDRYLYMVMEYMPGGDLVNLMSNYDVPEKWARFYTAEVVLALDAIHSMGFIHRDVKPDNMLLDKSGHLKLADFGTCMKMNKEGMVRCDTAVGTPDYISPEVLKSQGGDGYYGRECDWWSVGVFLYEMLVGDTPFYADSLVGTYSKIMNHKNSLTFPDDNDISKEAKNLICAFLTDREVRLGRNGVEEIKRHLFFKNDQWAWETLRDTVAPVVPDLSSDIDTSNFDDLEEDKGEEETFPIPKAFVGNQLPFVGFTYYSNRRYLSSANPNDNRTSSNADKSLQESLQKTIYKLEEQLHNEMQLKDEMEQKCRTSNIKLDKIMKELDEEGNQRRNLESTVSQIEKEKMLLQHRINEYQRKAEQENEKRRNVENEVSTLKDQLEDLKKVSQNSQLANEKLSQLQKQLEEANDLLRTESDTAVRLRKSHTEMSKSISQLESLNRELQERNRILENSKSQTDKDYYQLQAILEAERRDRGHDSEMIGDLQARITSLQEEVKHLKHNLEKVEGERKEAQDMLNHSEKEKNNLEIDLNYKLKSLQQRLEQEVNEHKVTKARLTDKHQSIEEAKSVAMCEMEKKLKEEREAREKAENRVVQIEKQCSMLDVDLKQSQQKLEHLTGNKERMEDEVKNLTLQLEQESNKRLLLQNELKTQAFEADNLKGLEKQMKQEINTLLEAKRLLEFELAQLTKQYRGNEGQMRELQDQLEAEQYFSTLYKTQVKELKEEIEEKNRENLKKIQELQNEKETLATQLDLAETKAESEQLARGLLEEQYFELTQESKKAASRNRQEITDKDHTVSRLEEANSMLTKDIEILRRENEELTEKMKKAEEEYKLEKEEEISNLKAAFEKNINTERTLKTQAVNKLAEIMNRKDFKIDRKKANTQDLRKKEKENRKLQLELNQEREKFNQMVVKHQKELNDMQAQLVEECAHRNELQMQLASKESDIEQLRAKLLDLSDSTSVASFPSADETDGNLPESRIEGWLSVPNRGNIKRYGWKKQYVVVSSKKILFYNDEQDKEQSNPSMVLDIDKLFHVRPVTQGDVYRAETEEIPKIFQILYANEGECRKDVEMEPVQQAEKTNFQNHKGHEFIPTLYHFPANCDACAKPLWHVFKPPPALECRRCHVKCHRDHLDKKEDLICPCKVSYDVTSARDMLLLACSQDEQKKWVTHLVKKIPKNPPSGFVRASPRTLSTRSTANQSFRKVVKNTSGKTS

`Nc1nccc2cc(S[C@H]3CC[C@@H](N)CC3)ccc12` [Example 4, Cis-6-(4-aminocyclohexylsulfanyl)isoquinolin-1-ylamine] showed an IC50 of less than 0.316 µM.
